These results are taken from patent publication US20260373233A1, “ISLET AMYLOID POLYPEPTIDE ISOFORMS AND PEPTIDES AND METHODS OF USE” (The United States of America, as represented by the …, priority 2022, published 2026).

Peptide text beside a SMILES is read from it.

For assay [1], the target named is T1, IAPP37 (Homo sapiens, UniProt P10997).
T1 construct: ThT fibrillation assay
T1 sequence (P10997 34-70): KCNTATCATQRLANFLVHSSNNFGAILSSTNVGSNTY
The assay is described as follows: Thioflavin T (ThT) IAPP37 fibrillation assay. The class given is biochemical. The following applies: 37 °C; for IAPP aggregation dynamics (AUC of ThT fluorescence) with inhibitor, % of IAPP37 aggregation: linear range of 90-160 min, 50 μM IAPP37 with 50 μM inhibitory peptide, p=0.003. The protocol:
(§1) Thioflavin T in vitro assay for IAPP and Ab amyloid formation: Thioflavin T (ThT) was from Millipore-Sigma (Cat #T3516, Rockville, MD). […] Black 96 well microplates (Chimney Well) were from Greiner Bio-One (Frickenhausen, Germany). C-terminal amidated IAPP25 and DNSP11 peptides were synthesized by GeneMed Synthesis Inc (San Antonio, TX). […] The final concentration […] 1% DMSO and 25 μM ThT in Component A buffer (AnaSpec Manual of SensoLyte Thioflavin T Aggregation Kit, Cat #AS-72214).
Statistical data analysis: GraphPad Prism v9 software was used for statistical analysis of RT-qPCR and SRM data and MetaboAnalyst v5.0 (metaboanalyst.ca/) was used for partial least squares-discriminant analysis (PLS-DA). P<0.05 was considered significant and data were represented as means±SEM. The normalized expression values of IAPP isoforms in TaqMan fold changes and ddPCR IAPP/GAPDH droplets, ELISA, and SRM quantitative values were analyzed with unpaired student t-test, Pearson correlation coefficient matrix. All statistical procedures for SRM biomarker discovery were carried out by using GraphPad Prism v9 software and MetaboAnalyst 5.0. Biomarker accuracies were calculated by area under the receiver operating characteristic curve (AUROC). For ThT amyloid dye assay, area under a curve (AUC) was calculated using the trapezoidal rule and the data were analyzed using one-way ANOVA with Tukey's multiple comparison correction. The ratio of means (±SEM) was calculated by propagation of error formula.
(§2) FIG. 10A is a representative experiment of three replicates showing IAPP37 aggregation dynamics with lag time of 90 min and inhibition by IAPP25 (derived from IAPP-γ) and DNSP11. […] ThT binding fluorescent intensity (F.I.) was transformed to area under curve (AUC) using the trapezoidal rule and the inhibitions were analyzed by one-way ANOVA with Tukey's multi-test correction.

Assay [2] addresses T2, Aβ42 (Homo sapiens, UniProt P05067).
T2 construct: ThT fibrillation assay
In words: Thioflavin T (ThT) Aβ42 fibrillation assay. The following applies: linear range of 70-120 min; 50 μM Aβ42 with 50 μM inhibitory peptide; 37 °C; p<0.0001. In kind it is biochemical.
Experimental: Thioflavin T in vitro assay for IAPP and Ab amyloid formation: Thioflavin T (ThT) was from Millipore-Sigma (Cat #T3516, Rockville, MD). […] Black 96 well microplates (Chimney Well) were from Greiner Bio-One (Frickenhausen, Germany). […] The final concentration the monomeric peptides was 1% DMSO and 25 μM ThT in Component A buffer (AnaSpec Manual of SensoLyte Thioflavin T Aggregation Kit, Cat #AS-72214).
P<0.05 was considered significant and data were represented as means±SEM. […] For ThT amyloid dye assay, area under a curve (AUC) was calculated using the trapezoidal rule and the data were analyzed using one-way ANOVA with Tukey's multiple comparison correction. The ratio of means (±SEM) was calculated by propagation of error formula.

The nature of assay [3]: ThT amyloid reporter binding assay of peptide alone. The method, then: as §1, §2
The subject of assay [4] is dopaminergic neurons. The following applies: animal models of Parkinson's disease; amidated DNSP11; cited from earlier work.

T2 sequence (P05067 672-713): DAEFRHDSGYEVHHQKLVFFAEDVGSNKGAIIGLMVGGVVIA

For the molecule `CC(C)C[C@H](NC(=O)[C@H](CO)NC(=O)[C@H](CCCNC(=N)N)NC(=O)[C@H](CC(=O)O)NC(=O)[C@H](CCC(=O)O)NC(=O)[C@H](C)NC(=O)[C@@H]1CCCN1C(=O)[C@H](C)NC(=O)[C@H](CCC(=O)O)NC(=O)[C@@H]1CCCN1C(=O)[C@@H]1CCCN1)C(N)=O` [DNSP11] (H-PPEAPAEDRSL-NH2), the “IAPP aggregation dynamics (AUC of ThT fluorescence) with inhibitor, % of IAPP37 aggregation” value in assay [1] was 24.1%. Also, the “Aβ aggregation dynamics (AUC of ThT fluorescence) with inhibitor, % of Aβ42 aggregation” value in assay [2] is on record as 62.9%. The “binding to ThT amyloid reporter” value in assay [3] is listed as “did not bind”. The “protection of dopaminergic neurons” value in assay [4] is listed as “protective to dopaminergic neurons”.
On to `CC[C@H](C)[C@H](NC(=O)[C@H](CCC(N)=O)NC(=O)[C@H](Cc1c[nH]c2ccccc12)NC(=O)[C@H](C)NC(=O)[C@H](CO)NC(=O)[C@H](CCCNC(=N)N)NC(=O)[C@H](CCC(N)=O)NC(=O)[C@@H](NC(=O)[C@H](Cc1c[nH]cn1)NC(=O)[C@@H]1CCCN1C(=O)[C@H](CC(C)C)NC(=O)[C@@H](NC(=O)[C@H](C)NC(=O)[C@H](CC(N)=O)NC(=O)CNC(=O)[C@H](CO)NC(=O)[C@H](CCCCN)NC(=O)[C@H](Cc1c[nH]c2ccccc12)NC(=O)[C@H](CCCNC(=N)N)NC(=O)[C@@H](NC(=O)[C@@H](NC(=O)[C@H](CCCCN)NC(=O)[C@H](CO)NC(=O)[C@@H](N)CCCCN)C(C)C)[C@@H](C)CC)[C@@H](C)O)C(C)C)C(=O)N[C@@H](Cc1ccccc1)C(N)=O` [IAPP25] (H-KSKVIRWKSGNATLPHVQRSAWQIF-NH2), for which the “IAPP aggregation dynamics (AUC of ThT fluorescence) with inhibitor, % of IAPP37 aggregation” value in assay [1] is reported as 25.0%. The “Aβ aggregation dynamics (AUC of ThT fluorescence) with inhibitor, % of Aβ42 aggregation” value in assay [2] is 50.6%. In assay [3], the “binding to ThT amyloid reporter” value is reported as “did not bind”.
As to “KCNTATCATQRLANFLVHSSNNFGAILSSTNVGSNTY [IAPP37, mature human IAPP, 37-AA peptide (AnaSpec Cat #AS-60254-1), reference compound]”, the “lag time of IAPP37 aggregation” value in assay [1] (IAPP37, representative experiment of three replicates) was 90 min.
